Results: PubChem BioAssay (NCI)
Several values for one entry are separate records, joined by “and”; a condition that tells them apart may be missing. Equal entries are not always repeated.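 Dose response: 5 concentrations. Exposure: 48 h. Format: 96-well plates. Endpoint: linear interpolation; highest concentration if not reached. GI50: concentration for 50% inhibition of growth. TGI is the concentration that stops growth completely.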

Tests used:
Test in all cases: NCI-60 cell line screen, 48 h
SN12C renal = test system: SN12C renal
HOP-62 NSCLC = test system: HOP-62 NSCLC
MOLT-4 leukemia = test system: MOLT-4 leukemia
SK-MEL-2 melanoma = test system: SK-MEL-2 melanoma
COLO 205 colon = test system: COLO 205 colon
CAKI-1 renal = test system: CAKI-1 renal
A549 NSCLC = test system: A549 NSCLC
TK-10 renal = test system: TK-10 renal
MALME-3M melanoma = test system: MALME-3M melanoma
HCT-116 colon = test system: HCT-116 colon

Compound	GI50 (SN12C renal)	TGI (SN12C renal)	GI50 (HOP-62 NSCLC)	TGI (HOP-62 NSCLC) [µM]	GI50 (MOLT-4 leukemia) [µM]	TGI (MOLT-4 leukemia) [µM]	GI50 (SK-MEL-2 melanoma)	TGI (SK-MEL-2 melanoma)	GI50 (COLO 205 colon)	TGI (COLO 205 colon)	GI50 (CAKI-1 renal)	TGI (CAKI-1 renal)	GI50 (A549 NSCLC)	TGI (A549 NSCLC) [µM]	GI50 (TK-10 renal)	TGI (TK-10 renal)	GI50 (MALME-3M melanoma)	TGI (MALME-3M melanoma)	GI50 (HCT-116 colon)	TGI (HCT-116 colon)
CC/C=C\C[C@H](O)C/C=C1/C(=O)C=C[C@@H]1C/C=C\CCCC(=O)NC(C)C	2.51 µM	6.35 µM	2.65 µM	6.59	2.72	11	2.52 µM	6.88 µM	2.51 µM	5.44 µM	2.08 µM	4.39 µM	3.24 µM	9.46	3.73 µM	9.64 µM	2.4 µM	6.69 µM	1.73 µM	3.59 µM
COc1ccc(CN2C(=O)/C(=C\c3cc(OC)c(OC)c(OC)c3)c3cc(OC)ccc32)cc1	3.53 µM	> 39.4 µM	2.37 µM	4.89	4.07	> 100	1.92 µM	4.01 µM	2.59 µM	6.51 µM	2.95 µM	> 22.2 µM	2.74 µM	8.62	3.92 µM	18.6 µM	3.82 µM	34.1 µM	1.63 µM	3.05 µM
O=C(CCN1CCN(c2cccc(Cl)c2)CC1)N1CCc2c([nH]c3ccccc23)C1c1cccnc1 (centres undefined)	7.59 µM	21.1 µM		23.9	4.65	26.6	5.24 µM	18.2 µM	4.83 µM	15.6 µM		14.3 µM		19	2.53 µM	10.9 µM	14.9 µM	36.8 µM	6.36 µM	18.3 µM
C/C(CN1C(=O)c2ccccc2C1=O)=N\NS(=O)(=O)c1cccc([N+](=O)[O-])c1		> 100 µM		> 100		> 100		> 100 µM		> 100 µM		> 100 µM		> 100		> 100 µM		> 100 µM		> 100 µM
O=C1c2ccccc2-c2c1c1ccccc1c(=O)n2CCCNCCCn1c2c(c3ccccc3c1=O)C(=O)c1ccccc1-2	3.4 µM	14.9 µM	2.68 µM	9.19	0.398		22.7 µM	> 50 µM	10.6 µM	> 31.1 µM	8.12 µM	17.5 µM	2.01 µM	> 50	5.34 µM	18 µM	12.6 µM	26.2 µM	1.75 µM	> 28.9 µM
Oc1c(CN2CCC(N3CCOCC3)CC2)cc(Cc2cc(CN3CCC(N4CCOCC4)CC3)c(O)c3ncccc23)c2cccnc12	0.67 µM	> 100 µM	0.356 µM	18.4	0.49	12.1	4.64 µM	30.3 µM	0.596 µM	10.6 µM	0.643 µM	21.2 µM	1.62 µM	12.5	1.12 µM	16.7 µM	4.22 µM	26.5 µM	0.383 µM	48.7 µM
CC(C)C[C@@H](NC(=O)[C@@H](Cc1ccccc1)NC(=O)c1cnccn1)B1O[C@H]2[C@H](O)[C@@H](C(=O)NCCCC[C@@H]3NC(=O)[C@@H](Cc4ccccc4)NC(=O)[C@H](CC(=O)O)NC(=O)CNC(=O)[C@H](CCCN=C(N)N)NC3=O)O[C@@H](CN)[C@H]2O1	0.0117 µM and 0.013 µM	0.055 µM and 0.485 µM	0.0125 µM and 0.0189 µM		0.00274	0.00931	0.00702 µM and 0.005 µM	0.0604 µM and 0.0123 µM	0.0262 µM and 0.005 µM	0.373 µM and 0.119 µM	0.00768 µM and 0.0148 µM	0.0525 µM and 0.0905 µM	0.0288 µM and 0.0148 µM	0.658	0.00308 µM and 0.005 µM	0.0249 µM and 0.00851 µM	0.00457 µM and 0.005 µM	0.127 µM and 0.591 µM	0.00339 µM and 0.005 µM	0.0182 µM and 0.0103 µM
CC(=O)Nc1ccc(/C=C(\NC(=O)c2ccccc2)c2nc3ccc4c(c3[nH]2)C(=O)c2ccccc2C4=O)cc1		> 100 µM		> 100		49.3		> 100 µM		> 100 µM		> 100 µM		96.3		> 100 µM		> 100 µM		> 100 µM
N#CC1=C(N)Oc2cc3c(cc2C1c1cccs1)OCO3 (centres undefined)	0.723 µM	> 100 µM	0.484 µM	> 100	0.504	> 100	0.252 µM	0.783 µM	0.366 µM	1.66 µM	0.542 µM	> 100 µM	0.583 µM	> 70.9	1.86 µM	> 67.8 µM	0.58 µM	> 100 µM	0.407 µM	> 62.3 µM
COc1ccc(C(=O)Cn2c(C(=O)c3ccc(OC)cc3)nc3ccccc32)cc1	> 92.9 µM	> 100 µM	5.46 µM	> 100	0.861	> 100	12.6 µM	> 100 µM	2.38 µM	8.21 µM	1.94 µM	> 100 µM	5.47 µM	> 100	4.8 µM	> 100 µM	2.91 µM	> 100 µM	2.36 µM	> 100 µM
COc1ccc(C(=O)Cn2c(C(=O)c3ccc(Cl)cc3)nc3ccccc32)cc1	97.8 µM	> 100 µM		> 34.6	3.83	> 100	> 32.7 µM	> 100 µM	37.5 µM	> 100 µM	> 100 µM	> 100 µM	29.8 µM	> 100	> 62.9 µM	> 100 µM	> 56.3 µM	> 100 µM	2.56 µM	> 25 µM
